Measured values reported in PMC12291913 (Antibiotics, 2025).
Converted amounts (≈) assume the structure as drawn. “And” between values parts separate entries of the source, which are not always exact repeats. Equal entries are not always repeated. Where two headings read alike, the source gives them in different places.

Legend:
[1] = tested on: M. avium clinical isolate Koav 3 (GyrA Asp95Gly); assay type: cell-based, M. avium subsp. hominissuis
[2] = tested on: M. avium clinical isolate Koav 11 (GyrA Asp95Tyr); assay type: cell-based, M. avium subsp. hominissuis
[3] = tested on: M. avium clinical isolate Koav 13 (GyrA Asp95Gly); assay type: cell-based, M. avium subsp. hominissuis
[4] = tested on: M. avium clinical isolate Cl-A-2 (GyrA Asp95Tyr); assay type: cell-based, M. avium subsp. hominissuis
[5] = tested on: M. avium clinical isolate Koav 1 (WT); experiment: microbe, parasite or virus in culture; assay type: cell-based; details: Mycobacterium avium, drug alone, day 14, read-out: MIC
[6] = tested on: M. avium clinical isolate Koav 2 (WT); experiment: microbe, parasite or virus in culture; assay type: cell-based; details: Mycobacterium avium, drug alone, day 14
[7] = tested on: M. avium clinical isolate Koav 15 (WT); experiment: microbe, parasite or virus in culture; assay type: cell-based; details: Mycobacterium avium, drug alone, day 14, read-out: MIC
[8] = tested on: M. avium clinical isolate Koav 19 (WT); experiment: microbe, parasite or virus in culture; assay type: cell-based; details: Mycobacterium avium, drug alone, day 14, read-out: MIC
[9] = tested on: M. avium clinical isolate Koav 20 (WT); experiment: microbe, parasite or virus in culture; assay type: cell-based; details: Mycobacterium avium, drug alone, day 14, read-out: MIC
[10] = tested on: M. avium clinical isolate Koav 21 (WT); experiment: microbe, parasite or virus in culture; assay type: cell-based; details: Mycobacterium avium, drug alone, day 14, read-out: MIC
[11] = tested on: M. avium clinical isolate Koav 25 (WT); experiment: microbe, parasite or virus in culture; assay type: cell-based; details: Mycobacterium avium, drug alone, day 14, read-out: MIC
[12] = tested on: M. avium clinical isolate Koav 3 (GyrA Asp95Gly); assay type: cell-based, M. avium subsp. hominissuis; remark: listed apart in the source
[13] = tested on: M. avium clinical isolate Koav 13 (GyrA Asp95Gly); assay type: cell-based, M. avium subsp. hominissuis; remark: listed apart in the source
[14] = tested on: M. avium clinical isolate Cl-A-2 (GyrA Asp95Tyr); assay type: cell-based, M. avium subsp. hominissuis; remark: listed apart in the source
[15] = tested on: M. avium clinical isolate Koav 1 (WT); experiment: microbe, parasite or virus in culture; assay type: cell-based; details: checkerboard; for MIC of drug alone: single replicates; for MIC: Mycobacterium avium
[16] = tested on: M. avium clinical isolate Koav 2 (WT); experiment: microbe, parasite or virus in culture; assay type: cell-based; details: checkerboard; for MIC: Mycobacterium avium
[17] = tested on: M. avium clinical isolate Koav 15 (WT); experiment: microbe, parasite or virus in culture; assay type: cell-based; details: checkerboard; for MIC: Mycobacterium avium
[18] = tested on: M. avium clinical isolate Koav 19 (WT); experiment: microbe, parasite or virus in culture; assay type: cell-based; details: for MIC: Mycobacterium avium
[19] = tested on: M. avium clinical isolate Koav 20 (WT); experiment: microbe, parasite or virus in culture; assay type: cell-based; details: checkerboard; for MIC: Mycobacterium avium
[20] = tested on: M. avium clinical isolate Koav 21 (WT); experiment: microbe, parasite or virus in culture; assay type: cell-based; details: checkerboard; for MIC: Mycobacterium avium
[21] = tested on: M. avium clinical isolate Koav 25 (WT); experiment: microbe, parasite or virus in culture; assay type: cell-based; details: for FIC of INH or EMB: pair with WQ-3810; for MIC: Mycobacterium avium
[22] = tested on: M. avium clinical isolate Koav 11 (GyrA Asp95Tyr); assay type: cell-based, M. avium subsp. hominissuis; remark: listed apart in the source
[23] = read-out: MIC of INH or EMB with WQ-3810, Koav 1 (K 1), WT
[24] = Koav 2 (K 2), WT, single replicates, read-out: MIC of drug alone
[25] = read-out: MIC of INH or EMB with WQ-3810, Koav 2 (K 2), WT
[26] = Koav 15 (K 15), WT, single replicates, read-out: MIC of drug alone
[27] = read-out: MIC of INH or EMB with 1 µg/ml MXF, Koav 15 (K 15), WT
[28] = read-out: MIC of INH or EMB with WQ-3810, Koav 15 (K 15), WT
[29] = Koav 19 (K 19), WT, checkerboard, single replicates
[30] = Koav 19 (K 19), WT, pair with MXF
[31] = Koav 19 (K 19), WT, checkerboard, single replicates, read-out: MIC of drug alone
[32] = read-out: MIC of INH or EMB with 1 µg/ml MXF, Koav 19 (K 19), WT, checkerboard
[33] = Koav 21 (K 21), WT, single replicates, read-out: MIC of drug alone
[34] = read-out: MIC of INH or EMB with 1 µg/ml MXF, Koav 21 (K 21), WT
[35] = Koav 25 (K 25), WT, checkerboard
[36] = Koav 25 (K 25), WT, checkerboard, single replicates, read-out: MIC of drug alone
[37] = read-out: MIC of INH or EMB with 1 µg/ml MXF, Koav 25 (K 25), WT, checkerboard
[38] = read-out: MIC of INH or EMB with WQ-3810, Koav 25 (K 25), WT, checkerboard

CC[C@@H](CO)NCCN[C@@H](CC)CO [EMB, ethambutol]
MIC [1]: 16 mg/L (≈ 78.3 µM) | MIC [2]: 16 mg/L (≈ 78.3 µM) | MIC [3]: 32 mg/L (≈ 157 µM) | MIC [4]: 16 mg/L (≈ 78.3 µM) | MIC [5]: 2 mg/L (≈ 9.79 µM) | MIC [6]: 16 mg/L (≈ 78.3 µM) | MIC [7]: 16 mg/L (≈ 78.3 µM) | MIC [8]: 16 mg/L (≈ 78.3 µM) | MIC [9]: 2 mg/L (≈ 9.79 µM) | MIC [10]: 32 mg/L (≈ 157 µM) | MIC [11]: 32 mg/L (≈ 157 µM) | MIC of INH or EMB with 1 µg/ml MXF [12]: 4 mg/L and 2 mg/L | MIC of INH or EMB with 1 µg/ml MXF [13]: 16 mg/L | MIC of INH or EMB with WQ-3810 [13]: 8 mg/L and 16 mg/L | MIC of drug alone [13]: 32 mg/L | MIC of INH or EMB with 1 µg/ml MXF [14]: 2 mg/L and 4 mg/L | MIC of drug alone [14]: 16 mg/L | MIC of INH or EMB with WQ-3810 ([15]; Koav 1 (K 1), WT): 2 mg/L | MIC of drug alone ([15]; Koav 1 (K 1), WT): 8 mg/L and 4 mg/L and 2 mg/L | MIC [15, 23]: 4 mg/L | MIC of drug alone ([16]; Koav 2 (K 2), WT, single replicates): 32 mg/L | MIC [16, 24]: 16 mg/L | MIC [16, 25]: 8 mg/L | MIC of INH or EMB with 1 µg/ml MXF ([17]; Koav 15 (K 15), WT): 4 mg/L | MIC of INH or EMB with WQ-3810 ([17]; Koav 15 (K 15), WT): 8 mg/L | MIC [17, 26]: 16 mg/L | MIC [17, 27]: 8 mg/L | MIC [17, 28]: 4 mg/L | MIC of INH or EMB with WQ-3810 ([18]; Koav 19 (K 19), WT, checkerboard): 8 mg/L | MIC of drug alone [18, 29]: 16 mg/L | FIC of INH or EMB [18, 30]: 0.5 µg/mL | FIC of INH or EMB ([18]; Koav 19 (K 19), WT, pair with WQ-3810): 0.5 µg/mL | MIC [18, 31]: 8 mg/L | MIC [18, 32]: 8 mg/L | MIC ([18]; read-out: MIC of INH or EMB with WQ-3810, Koav 19 (K 19), WT, checkerboard): 4 mg/L | MIC ([19]; Koav 20 (K 20), WT, single replicates, read-out: MIC of drug alone): 2 mg/L | MIC of INH or EMB with 1 µg/ml MXF ([20]; Koav 21 (K 21), WT): 1 mg/L | MIC [20, 33]: 32 mg/L | MIC [20, 34]: 2 mg/L | MIC ([20]; read-out: MIC of INH or EMB with WQ-3810, Koav 21 (K 21), WT): 16 mg/L | MIC of INH or EMB with 1 µg/ml MXF [21, 35]: 8 mg/L | FIC of INH or EMB ([21]; Koav 25 (K 25), WT): 0.5 µg/mL | MIC [21, 36]: 32 mg/L | MIC [21, 37]: 16 mg/L | MIC [21, 38]: 16 mg/L

NNC(=O)c1ccncc1 [INH, isoniazid]
MIC [1]: 4 mg/L (≈ 29.2 µM) | MIC [2]: 8 mg/L (≈ 58.3 µM) | MIC [3]: 32 mg/L (≈ 233 µM) | MIC [4]: 4 to 8 mg/L | MIC [5]: 8 mg/L (≈ 58.3 µM) | MIC [6]: 128 mg/L (≈ 933 µM) | MIC [7]: 32 mg/L (≈ 233 µM) | MIC [8]: 8 to 16 mg/L (≈ 58.3 to 117 µM) | MIC [9]: 16 mg/L (≈ 117 µM) | MIC [10]: 16 mg/L (≈ 117 µM) | MIC [11]: 8 mg/L (≈ 58.3 µM) | MIC of INH or EMB with 1 µg/ml MXF [12]: 2 mg/L and 1 mg/L | MIC of INH or EMB with WQ-3810 [12]: 2 mg/L and 1 mg/L | MIC of drug alone [12]: 4 mg/L and 8 mg/L | MIC of INH or EMB with 1 µg/ml MXF [22]: 2 mg/L | MIC of INH or EMB with WQ-3810 [22]: 2 mg/L | MIC of drug alone [22]: 8 mg/L and 16 mg/L | MIC of INH or EMB with 1 µg/ml MXF [13]: 8 mg/L and 4 mg/L | MIC of INH or EMB with WQ-3810 [13]: 8 mg/L and 4 mg/L | MIC of drug alone [13]: 32 mg/L | FIC of INH or EMB [14]: 0.5 µg/mL and 0.25 µg/mL | MIC of INH or EMB with 1 µg/ml MXF [14]: 2 mg/L | MIC of INH or EMB with WQ-3810 [14]: 2 mg/L | MIC of drug alone [14]: 4 mg/L and 8 mg/L | MIC of INH or EMB with 1 µg/ml MXF ([15]; Koav 1 (K 1), WT): 2 mg/L | MIC of INH or EMB with WQ-3810 ([15]; Koav 1 (K 1), WT): 8 mg/L | MIC of drug alone ([15]; Koav 1 (K 1), WT): 16 mg/L and 32 mg/L and 8 mg/L | MIC ([15]; read-out: MIC of INH or EMB with 1 µg/ml MXF, Koav 1 (K 1), WT): 1 mg/L | MIC [15, 23]: 4 mg/L | MIC [16, 24]: 128 mg/L | MIC ([16]; read-out: MIC of INH or EMB with 1 µg/ml MXF, Koav 2 (K 2), WT): 8 mg/L | MIC [16, 25]: 16 mg/L | MIC of INH or EMB with 1 µg/ml MXF ([17]; Koav 15 (K 15), WT): 4 mg/L | MIC of INH or EMB with WQ-3810 ([17]; Koav 15 (K 15), WT): 8 mg/L | MIC of drug alone ([17]; Koav 15 (K 15), WT, single replicates): 16 mg/L | MIC [17, 26]: 32 mg/L | MIC [17, 27]: 8 mg/L | MIC [17, 28]: 4 mg/L | MIC of drug alone [18, 29]: 16 mg/L | FIC of INH or EMB [18, 30]: 0.0625 µg/mL | MIC [18, 31]: 8 mg/L | MIC [18, 32]: 1 mg/L | MIC of INH or EMB with 1 µg/ml MXF ([19]; Koav 20 (K 20), WT): 4 mg/L | MIC of drug alone ([19]; Koav 20 (K 20), WT, single replicates): 32 mg/L and 16 mg/L and 64 mg/L | MIC ([19]; read-out: MIC of INH or EMB with 1 µg/ml MXF, Koav 20 (K 20), WT): 2 mg/L | MIC [20, 33]: 16 mg/L | MIC [20, 34]: 1 mg/L | MIC of INH or EMB with 1 µg/ml MXF [21, 35]: 1 mg/L | MIC of INH or EMB with WQ-3810 [21, 35]: 4 mg/L | MIC of drug alone ([21]; Koav 25 (K 25), WT, checkerboard, single replicates): 16 mg/L | FIC of INH or EMB ([21]; Koav 25 (K 25), WT): 0.25 µg/mL | MIC [21, 36]: 8 mg/L | MIC [21, 37]: 2 mg/L | MIC [21, 38]: 2 mg/L
